Data as given in patent US20080131366A1, “Folate Receptor Gene Modulation For Cancer Diagnosis And Therapy” (priority 2003, published 2008).

What was measured:
GRE2e1b promoter = tested on: GRE2e1b promoter
Procedure: (§1) HeLa cells, which express endogenous GR, were transfected with FR-α promoter-luciferase or GRE2e1b promoter luciferase. […] FIG. 17B: Time course of Dex action. Promoter activity was measured in terms of luciferase activity at the different time points.

FR-α promoter [1] = assay: FR-α promoter-luciferase in HeLa cells (endogenous GR); assay type: cell-based
Procedure: as §1

FR-α [2] = assay: Endogenous FR-α in AR-transfected HeLa cells, flow cytometry with fluorescein-folic acid conjugate; assay type: cell-based
Procedure: Where indicated, cells were transfected with AR expression plasmid and the testosterone (10 nM) and TSA (50 mg/ml) treatments were for 3 days post-transfection.

FR-α promoter [3] = assay: FR-α promoter-luciferase in T47D cells (endogenous PR and GR); assay type: cell-based; settings: TSA 25 ng/ml with R5020
Procedure: T47D cells were transfected with FR-α promoter-luciferase and where indicated, co-transfected with SRC1 expression plasmid. R5020 (10 nM) and TSA (25 mg/ml) treatments were initiated at the time of transfection and lasted 3 days at the end of which the cells were harvested for luciferase assays.

FR-α [4] = assay: Induction of endogenous FR-α in ER+/FRα-negative cells; assay type: cell-based; settings: ER+/FRα-negative cells including BG-1; results not shown
Text: It appears that ER will only modulate the endogenous FR-α gene in cells in which the gene is transcriptionally active.

FR-α [5] = assay: FR-α in HeLa cell tumor xenografts after tamoxifen, western blot; assay type: in vivo, mouse; settings: ER+ HeLa cell tumors, tamoxifen 1 mg/kg sc daily
FR-α promoter [6] = assay: FR-α promoter-luciferase reporter in HeLa cells co-transfected with ER; assay type: cell-based
Procedure: (§2) (FIG. 1A) HeLa and IGROV-1 cells (10^6) were co-transfected with the FR-α promoter-luciferase construct (400 ng) and either an ER expression plasmid (25 ng) or with the plasmid vector alone (25 ng) in the presence of 1 nM E2. Antiestrogens were introduced at the time of transfection. […] (FIG. 1B) The FR-α promoter-luciferase construct (400 ng) was transfected into BG-1 cells (10^6) in the absence or in the presence of E2 (1 nM) and antiestrogens were introduced at the time of transfection. (FIG. 1C) HeLa cells (10^6) were transfected with the thymidine kinase (TK)-promoter-luciferase (200 ng) or Rous Sarcoma Virus (RSV)-promoter-luciferase (200 ng) constructs and were co-transfected with either ER plasmid (25 ng) or with the plasmid vector (25 ng). Antiestrogens were introduced at the time of transfection.
FIGS. 2A and 2B are graphs showing an estrogen and antiestrogen dose response of a control ERE-driven promoter and the FR-α promoter in HeLa cells. The Y-axis in FIG. 2A indicates promoter activation, whereas the Y-axis in FIG. 2B indicates promoter repression. The cells (10^6) were transfected with either ERE2E1b-luciferase (100 ng) (FIG. 2A) or FR-α promoter-luciferase (100 ng) (FIG. 2B) and co-transfected with the ER expression plasmid (50 ng) where indicated. Cells that were not co-transfected with the ER-plasmid were co-transfected instead with the plasmid vector alone (50 ng).
FIGS. 3A and 3B are graphs showing a time course of response of the control ERE2E1b-luciferase (FIG. 3A) and FR-α promoter luciferase (FIG. 3B) to antiestrogens in HeLa cells. The cells (10^6) were transfected with the indicated promoter-luciferase construct (100 ng) and co-transfected with ER expression plasmid (50 ng) in the presence of E2 (1 nM).
In one set of experiments, the antiestrogens were removed after a 6 h treatment.
Cell Culture and Transfection: HeLa I-1 cells were kindly provided by Dr. S. T. Rosen. BG-1 cells were provided by Dr. Randolf Ruch. HeLa (American Type Tissue Collection) and HeLa I-1 cells were routinely cultured in phenol red-free MEM supplemented with fetal bovine serum (FBS) (10%), penicillin (100 units/mL), streptomycin ([…]), and L-glutamine (2 mM). BG-1 and IGROV1 (American Type Tissue Collection) cells were routinely cultured in DMEM and supplemented as above. Treated or transfected cells were grown in phenol-red free media supplemented with charcoal-stripped FBS (5% v/v), penicillin (100 units/mL), streptomycin ([…]), L-glutamine (2 mM), insulin (2 μg/mL), and transferrin (40 μg/mL) unless otherwise noted. In addition, treated HeLa I-1 cells were grown in culture with 50 μg/mL G418. […] Uniformity of transfection was routinely monitored through cotransfections with the β-galactosidase expression plasmid, pSV-β-gal (Promega). β-galactosidase activity was measured colorimetrically using the assay system available from Promega.
Luciferase Assay: Forty-eight hours after transfection, the cells were washed once with PBS (10 mM sodium phosphate, pH 7.5, 150 mM NaCl) and harvested in 400 μL of reporter lysis buffer provided with the luciferase assay system (Promega). The samples were centrifuged at 12,000 g for 2 min at room temperature. The supernatant was assayed for luciferase activity in a luminometer (Lumat LB9501, Berthold) using the luciferase substrate from Promega.

FR-α promoter [7] = assay: FR-α promoter-luciferase reporter in IGROV-1 cells co-transfected with ER; assay type: cell-based; settings: IGROV-1, ER co-transfected, 1 nM E2, pharmacologic concentrations of antiestrogen
Procedure: as §2
Cell Culture and Transfection: HeLa I-1 cells were kindly provided by Dr. S. T. Rosen. BG-1 cells were provided by Dr. Randolf Ruch. […] Uniformity of transfection was routinely monitored through cotransfections with the β-galactosidase expression plasmid, pSV-β-gal (Promega). β-galactosidase activity was measured colorimetrically using the assay system available from Promega. […]

FR (α or β) = assay: FR induction by testosterone in FR-negative cell types; assay type: cell-based; settings: results not shown
FR-α promoter [8] = assay: FR-α promoter-luciferase in HeLa cells transfected with AR; assay type: cell-based; settings: 10 nM
Procedure: (§3) FIGS. 10A, 10B, 10C and 10D are graphs showing the enhancement of FR-α promoter activity by testosterone/AR. In HeLa cells, AR was introduced by transiently transfecting an AR expression plasmid. FR-α promoter-luciferase, PSA-promoter-luciferase, or promoterless PGL3 basic-luciferase was co-transfected. Testosterone was introduced at the time of transfection (10 nM in FIGS. 10A, 10C, and 10D) and cells harvested for luciferase assays 48 h post-transfection. […] FIGS. 10C and 10D show AR dose responses for the FR-α and PSA promoters, respectively.
(§4) FIG. 11 is a graph showing the time course of testosterone/AR action on FR-α and PSA promoters. HeLa cells were cotransfected with AR expression plasmid and either FR-α promoter-luciferase or PSA promoter-luciferase. Testosterone (10 nM) was introduced 48 h post-transfection and the cells harvested to assay luciferase activity at the indicated times.

PSA promoter = assay: PSA promoter-luciferase in HeLa cells transfected with AR; assay type: cell-based; settings: 10 nM, introduced 48 h post-transfection
Procedure: as §3, §4

[9] = molecular target: T1, Estrogen receptor alpha (ER) (UniProt P03372 P03372:1-595); assay: EMSA; HeLa NE present; E2 increased band, tamoxifen and ICI 182,780 abolished it; 100-fold unlabelled ERE blocked; room temperature, 50 mM KCl, 0.5 mM MgCl2; settings: assayed with HeLa nuclear extract; label: 32P
[10] = molecular target: T1, Estrogen receptor alpha (ER); assay: EMSA; no ER shift with consensus Sp1; HeLa NE present; settings: assayed with HeLa nuclear extract; label: 32P
[11] = molecular target: T1, Estrogen receptor alpha (ER); assay: EMSA; HeLa NE present; tamoxifen but not ICI 182,780 abolished band; settings: assayed with HeLa nuclear extract; label: 32P

T1 sequence (P03372 whole entry, one chain of several): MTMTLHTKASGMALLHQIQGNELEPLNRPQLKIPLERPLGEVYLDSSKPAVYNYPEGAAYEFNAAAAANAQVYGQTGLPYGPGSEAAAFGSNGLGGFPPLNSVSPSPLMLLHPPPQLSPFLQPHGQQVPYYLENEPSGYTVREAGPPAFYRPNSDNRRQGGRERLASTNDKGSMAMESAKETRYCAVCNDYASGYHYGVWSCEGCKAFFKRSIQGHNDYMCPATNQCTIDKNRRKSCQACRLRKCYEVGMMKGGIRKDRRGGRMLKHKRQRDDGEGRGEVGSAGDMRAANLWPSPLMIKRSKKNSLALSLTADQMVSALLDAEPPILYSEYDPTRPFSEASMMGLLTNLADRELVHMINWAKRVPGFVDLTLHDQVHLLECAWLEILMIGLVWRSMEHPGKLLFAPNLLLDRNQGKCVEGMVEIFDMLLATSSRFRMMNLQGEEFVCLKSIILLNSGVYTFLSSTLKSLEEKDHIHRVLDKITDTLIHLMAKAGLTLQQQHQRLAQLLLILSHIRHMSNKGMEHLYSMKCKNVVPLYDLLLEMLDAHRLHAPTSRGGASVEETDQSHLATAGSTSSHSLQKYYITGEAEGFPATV

For `C[C@@H]1C[C@H]2[C@@H]3CCC4=CC(=O)C=C[C@]4(C)[C@@]3(F)[C@@H](O)C[C@]2(C)[C@@]1(O)C(=O)CO` [Dex, dexamethasone], the “time at which activation was shown” value (GRE2e1b promoter) was at most 3 h, the “concentration of optimal enhancement” value (FR-α promoter [1]) was 50 nM and the “time at which enhancement began” value (FR-α promoter [1]) was over 48 h.

In the case of `CC(/C=C/C(=O)NO)=C\[C@@H](C)C(=O)c1ccc(N(C)C)cc1` [TSA, trichostatin A], the “further enhancement of the testosterone/AR-dependent increase” value (FR-α [2]; 50 ng/ml TSA with testosterone 10 nM) is reported as about 4 fold and the “activation of the FR-α promoter by R5020” value (FR-α promoter [3]) is reported as “greatly potentiated”.

In the case of `CC/C(=C(\c1ccccc1)c1ccc(OCCN(C)C)cc1)c1ccccc1` [tamoxifen, Tamoxifen], the “induction of endogenous FR-α expression” value (FR-α [4]) is reported as “In no case did the inventor observe induction”, the “FR-α expression in tumors” value (FR-α [5]) is reported as “significant increase in FR-α expression” and the “derepression of FR-α promoter after 6 h treatment and withdrawal” value (FR-α promoter [6]; 6 h treatment, then compound withdrawn) is reported as “partially lost”. For the same molecule, the “effect on FR-α promoter (ligand dose response)” value (FR-α promoter [6]; HeLa, ER co-transfected) was “the repression was counteracted”, the “FR-α promoter activity after repression by ER” value (FR-α promoter [6]; HeLa, ER co-transfected, 1 nM E2, pharmacologic concentrations of antiestrogen) was “either partially or completely restored to the uninhibited values” and the “reporter activity at the end of 48 h post-transfection” value (FR-α promoter [6]; antiestrogen introduced 24 h after co-transfection) was “a doubling of the reporter activity”. For the same molecule, the “onset of activation of FR-α promoter” value (FR-α promoter [6]; antiestrogen introduced 24 h after transfection) was “began within hours and progressively increased”, the “FR-α promoter activity in the absence of ER” value (FR-α promoter [6]; no ER co-transfected, HeLa and IGROV-1, results not shown) was “did not alter FR-α promoter activity” and the “FR-α promoter activity after repression by ER” value (FR-α promoter [7]) was “either partially or completely restored to the uninhibited values”.

For `C[C@]12CC[C@H]3[C@@H](CCC4=CC(=O)CC[C@@]43C)[C@@H]1CC[C@@H]2O` [testosterone], the “induction of FR (α or β) expression” value (FR (α or β)) was “did not induce FR (α or β) expression”, the “increase in fluorescence of the major peak (endogenous FR)” value (FR-α [2]; 10 nM for 3 days, AR transfected) was “approximately 7 fold” and the FR-α promoter activity (FR-α promoter [8]) was “increased the promoter activity”. For the same molecule, the “time at which activation was observed” value (FR-α promoter [8]; introduced 48 h post-transfection) was 2 h and the “time at which activation was observed” value (PSA promoter) was 2 h.

B1: FR-alpha P4 promoter probe -89 to -50 (dsDNA)
DNA 1: GGAGATGGGGGCAGGGCTCTATCTGCCCCAGGCTTCCGTCC
DNA 2: GGACGGAAGCCTGGGGCAGATAGAGCCCTGCCCCCATCTCC
B1: binds [9].

B2: consensus Sp1 probe (dsDNA)
DNA 1: ATTCGATCGGGGCGGGGCGAG
DNA 2: CTCGCCCCGCCCCGATCGAAT
B2: no binding [10].

B3: consensus ERE probe (dsDNA)
DNA 1: GTCAGGTCACAGTGACCTGA
DNA 2: TCAGGTCACTGTGACCTGAC
B3: binds [11].
